Laboratory results published in patent publication US6958357B2, “Substituted benzimidazoles, processes for their preparation, their use as medicaments, and medicaments comprising them” (Aventis Pharma Deutschland GmbH, priority 2000, dated 2005).
Several values for one entry are separate records, joined by “and”; a condition that tells them apart may be missing. Equal entries are not always repeated. Structures can show the parent of a compound that is named as a salt.

Biological target: rNHE3 (Rattus norvegicus, UniProt P26433)
Assay: recovery of the intracellular pH (pHi) after acidification, BCECF fluorescence, NHE inhibition
Type: cell-based
Details: pH recovery recorded for three minutes in the case of NHE3; bicarbonate-free conditions
Description: In this test, the recovery of the intracellular pH (pHi) after an acidification was determined which commences with functional NHE even under bicarbonate-free conditions. For this, the pHi was determined using the pH-sensitive fluorescent dye BCECF (Calbiochem, the precursor BCECF-AM was employed). The cells were first loaded with BCECF. The BCECF fluorescence was determined in a “Ratio Fluorescence Spectrometer” (Photon Technology International, South Brunswick, N.J., USA) at excitation wavelengths of 505 and 440 nm and an emission wavelength of 535 nm and converted into the pHi by means of calibration curves. The cells were incubated in NH4Cl buffer (pH 7.4) even in the case of BCECF loading (NH4Cl buffer: 115 mM NaCl, 20 mM NH4Cl, 5 mM KCl, 1 mM CaCl2, 1 mM MgSO4, 20 mM Hepes, 5 mM glucose, 1 mg/ml of BSA; a pH of 7.4 is set using 1 M NaOH). The intracellular acidification was induced by addition of 975 μl of an NH4Cl-free buffer (see below) to 25 μl aliquots of the cells incubated in NH4Cl buffer. The subsequent rate of pH recovery was recorded for two minutes in the case of NHE1, for five minutes in the case of NHE2, and for three minutes in the case of NHE3. For the calculation of the inhibitory potency of the substances tested, the cells were first investigated in buffers in which a complete pH recovery or no pH recovery at all took place. For the complete pH recovery (100%), the cells were incubated in Na+-containing buffer (133.8 mM NaCl, 4.7 mM KCl, 1.25 mM CaCl2, 1.25 mM MgCl2, 0.97 mM […], 0.23 mM […], 5 mM Hepes, 5 mM glucose; a pH of 7.0 is set using 1 M NaOH). For the determination of the 0% value, the cells were incubated in an Na+-free buffer (133.8 mM choline chloride, 4.7 mM KCl, 1.25 mM CaCl2, 1.25 mM MgCl2, 0.97 mM K2HPO4, 0.23 mM KH2PO4, 5 mM Hepes, 5 mM glucose; a pH of 7.0 is set using 1 M NaOH). The substances to be tested were applied in the Na+-containing buffer. The recovery of the intracellular pH at each tested concentration of a substance was expressed in percent of the maximum recovery. The IC value of the respective substance for the individual NHE subtypes was calculated from the percentage values of the pH recovery by means of the program Sigma-Plot.

rNHE3, sequence (P26433 29-831): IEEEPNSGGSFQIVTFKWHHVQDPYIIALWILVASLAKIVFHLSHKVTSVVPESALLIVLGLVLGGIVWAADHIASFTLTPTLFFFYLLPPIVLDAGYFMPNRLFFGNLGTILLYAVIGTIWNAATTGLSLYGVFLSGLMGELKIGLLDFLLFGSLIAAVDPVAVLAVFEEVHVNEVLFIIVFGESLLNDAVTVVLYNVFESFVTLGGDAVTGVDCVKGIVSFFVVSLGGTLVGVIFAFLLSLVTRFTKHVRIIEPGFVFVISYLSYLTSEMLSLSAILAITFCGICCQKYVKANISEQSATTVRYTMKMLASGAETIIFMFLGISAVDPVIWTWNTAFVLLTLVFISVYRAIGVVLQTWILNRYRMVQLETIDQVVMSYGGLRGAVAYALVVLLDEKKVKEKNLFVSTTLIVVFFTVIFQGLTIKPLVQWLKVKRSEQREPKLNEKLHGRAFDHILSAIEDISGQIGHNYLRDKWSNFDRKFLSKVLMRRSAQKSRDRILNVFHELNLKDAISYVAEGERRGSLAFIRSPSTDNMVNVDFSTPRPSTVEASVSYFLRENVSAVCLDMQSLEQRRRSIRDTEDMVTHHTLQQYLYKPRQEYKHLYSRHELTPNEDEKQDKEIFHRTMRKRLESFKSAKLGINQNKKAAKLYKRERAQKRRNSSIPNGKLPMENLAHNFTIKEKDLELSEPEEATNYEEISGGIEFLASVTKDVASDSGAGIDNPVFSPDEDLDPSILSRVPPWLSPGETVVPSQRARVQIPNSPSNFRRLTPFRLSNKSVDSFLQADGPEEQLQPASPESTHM

IC50	Structure (SMILES)
0.53 µM	Clc1cccc(Cl)c1Nc1nc2ccccc2[nH]1 [Example 1, (1H-Benzimidazol-2-yl)-(2,6-dichlorophenyl)amine hydrochloride]
0.47 µM	Cl.Oc1cccc2[nH]c(Nc3c(Cl)cccc3Cl)nc12 [Example 2, 2-(2,6-Dichlorophenylamino)-1H-benzimidazol-4-ol Hydrochloride]
0.64 µM	Cc1cccc(C)c1Nc1nc2ccccc2[nH]1 [Example 3, (1H-Benzimidazol-2-yl)-(2,6-dimethylphenyl)amine trifluoracetate]
0.49 µM	Cc1cccc(Cl)c1Nc1nc2ccccc2[nH]1 [Example 4, (1H-Benzimidazol-2-yl)-(2-chloro-6-methylphenyl)amine hydrochloride]
0.78 µM	Fc1cc2nc(Nc3c(Cl)cccc3Cl)[nH]c2cc1F [Example 5, (2,6-Dichlorophenyl)-(5,6-difluoro-1H-benzimidazol-2-yl)amine hydrochloride]
0.39 µM	Cc1cccc2[nH]c(Nc3c(Cl)cccc3Cl)nc12 [Example 6, (2,6-Dichlorophenyl)-(4-methyl-1H-benzimidazol-2-yl)amine trifluoracetate]
0.52 µM	Fc1cccc(Cl)c1Nc1nc2ccccc2[nH]1 [Example 7, (1H-Benzimidazol-2-yl)-(2-chloro-6-fluorophenyl)amine hydrochloride]
1 µM	Fc1ccc2[nH]c(Nc3c(Cl)cccc3Cl)nc2c1 [Example 9, 2-(2,6-Dichlorophenylamino)-5-fluorobenzimidazole hydrochloride]
3.2 µM	Cl.Fc1cccc2nc(Nc3c(Cl)cccc3Cl)[nH]c12 [Example 10, 2-(2,6-Dichlorophenylamino)-4-fluorobenzimidazole hydrochloride]
0.83 µM	FC(F)(F)c1cccc(Cl)c1Nc1nc2ccccc2[nH]1 [Example 11, 2-(2-Trifluoromethyl-6-chlorophenylamino)benzimidazole hydrochloride]
2.9 µM	Cl.Fc1ccc2nc(Nc3c(Cl)cccc3Cl)[nH]c2c1F [Example 12, 2-(2,6-Dichlorophenylamino)-4,5-difluorobenzimidazole hydrochloride]
1.1 µM	Oc1ccc2[nH]c(Nc3c(Cl)cccc3Cl)nc2c1 [Example 13, 2-(2,6-Dichlorophenylamino)-5-hydroxybenzimidazole hydrobromide]
5.6 µM	Fc1c(F)c(F)c2[nH]c(Nc3c(Cl)cccc3Cl)nc2c1F [Example 14, 2-(2,6-Dichlorophenylamino)-4,5,6,7-tetrafluorobenzimidazole hydrochloride]
1.6 µM	Cl.Fc1cc(F)c2[nH]c(Nc3c(Cl)cccc3Cl)nc2c1 [Example 15, 2-(2,6-Dichlorophenylamino)-4,6-difluorobenzimidazole hydrochloride]
3.5 µM	Cc1ccccc1Nc1nc2ccccc2[nH]1 [Example 19, (1H-Benzimidazol-2-yl)-o-tolylamine hydrochloride]

Structure (SMILES)	IC50
Brc1cccc(Br)c1Nc1nc2ccccc2[nH]1 [Example 8, (1H-Benzimidazol-2-yl)-(2,6-dibromophenyl)amine trifluoroacetate]	0.65 µM
Clc1ccccc1Nc1nc2ccccc2[nH]1 [Example 16, (1H-Benzimidazol-2-yl)-(2-chlorophenyl)amine trifluoroacetate]	0.63 µM
FC(F)(F)c1ccccc1Nc1nc2ccccc2[nH]1 [Example 17, (1H-Benzimidazol-2-yl)-(2-trifluoromethylphenyl)amine trifluoroacetate]	3.5 µM
Brc1ccccc1Nc1nc2ccccc2[nH]1 [Example 18, (1H-Benzimidazol-2-yl)-(2-bromophenyl)amine trifluoroacetate]	1.2 µM

Test system: not given
Assay: not given
Details: not given

melting point	Structure (SMILES)
265 to 269 °C	Oc1ccc2[nH]c(Nc3c(Cl)cccc3Cl)nc2c1 (as salt: hydrobromid) [Example 13, 2-(2,6-Dichlorophenylamino)-5-hydroxybenzimidazole hydrobromide]
294 to 296 °C	Fc1ccc2[nH]c(Nc3c(Cl)cccc3Cl)nc2c1 (as salt: hydrochloride) [Example 9, 2-(2,6-Dichlorophenylamino)-5-fluorobenzimidazole hydrochloride]
255 to 288 °C	FC(F)(F)c1cccc(Cl)c1Nc1nc2ccccc2[nH]1 (as salt: hydrochloride) [Example 11, 2-(2-Trifluoromethyl-6-chlorophenylamino)benzimidazole hydrochloride]
220 to 222 °C	Fc1c(F)c(F)c2[nH]c(Nc3c(Cl)cccc3Cl)nc2c1F (as salt: hydrochloride) [Example 14, 2-(2,6-Dichlorophenylamino)-4,5,6,7-tetrafluorobenzimidazole hydrochloride]
333 to 335 °C	Cl.Oc1cccc2[nH]c(Nc3c(Cl)cccc3Cl)nc12 [Example 2, 2-(2,6-Dichlorophenylamino)-1H-benzimidazol-4-ol Hydrochloride]
268 to 296 °C	Cl.Fc1cccc2nc(Nc3c(Cl)cccc3Cl)[nH]c12 [Example 10, 2-(2,6-Dichlorophenylamino)-4-fluorobenzimidazole hydrochloride]
232 to 234 °C and 228 to 230 °C	Cl.Fc1ccc2nc(Nc3c(Cl)cccc3Cl)[nH]c2c1F [Example 12, 2-(2,6-Dichlorophenylamino)-4,5-difluorobenzimidazole hydrochloride]
310 to 314 °C	Cl.Fc1cc(F)c2[nH]c(Nc3c(Cl)cccc3Cl)nc2c1 [Example 15, 2-(2,6-Dichlorophenylamino)-4,6-difluorobenzimidazole hydrochloride]
